Measured values reported in patent US4778790A, “Perhydrothiazepine and perhydroazepine derivatives and their therapeutic use” (Sankyo Company Limited, priority 1986, dated 1988).
Structures can show the parent of a compound that is named as a salt.

Each compound was assayed against T1, ACE extracted from rabbit lungs (Oryctolagus cuniculus, UniProt P12822) (assay: in vitro ACE inhibition (hippurylhistidylleucine substrate, procedure of Cushman et al.)). Conditions: rabbit lung ACE, borate buffer with NaCl, pH 8.3, 37° C., 30 minutes, read-out: IC50 (concentration required to inhibit the activity of ACE by 50% in vitro).
T1 construct: ACE extracted from rabbit lungs; from tissue; host or cells: rabbit lung
T1 sequence (P12822 34-1310): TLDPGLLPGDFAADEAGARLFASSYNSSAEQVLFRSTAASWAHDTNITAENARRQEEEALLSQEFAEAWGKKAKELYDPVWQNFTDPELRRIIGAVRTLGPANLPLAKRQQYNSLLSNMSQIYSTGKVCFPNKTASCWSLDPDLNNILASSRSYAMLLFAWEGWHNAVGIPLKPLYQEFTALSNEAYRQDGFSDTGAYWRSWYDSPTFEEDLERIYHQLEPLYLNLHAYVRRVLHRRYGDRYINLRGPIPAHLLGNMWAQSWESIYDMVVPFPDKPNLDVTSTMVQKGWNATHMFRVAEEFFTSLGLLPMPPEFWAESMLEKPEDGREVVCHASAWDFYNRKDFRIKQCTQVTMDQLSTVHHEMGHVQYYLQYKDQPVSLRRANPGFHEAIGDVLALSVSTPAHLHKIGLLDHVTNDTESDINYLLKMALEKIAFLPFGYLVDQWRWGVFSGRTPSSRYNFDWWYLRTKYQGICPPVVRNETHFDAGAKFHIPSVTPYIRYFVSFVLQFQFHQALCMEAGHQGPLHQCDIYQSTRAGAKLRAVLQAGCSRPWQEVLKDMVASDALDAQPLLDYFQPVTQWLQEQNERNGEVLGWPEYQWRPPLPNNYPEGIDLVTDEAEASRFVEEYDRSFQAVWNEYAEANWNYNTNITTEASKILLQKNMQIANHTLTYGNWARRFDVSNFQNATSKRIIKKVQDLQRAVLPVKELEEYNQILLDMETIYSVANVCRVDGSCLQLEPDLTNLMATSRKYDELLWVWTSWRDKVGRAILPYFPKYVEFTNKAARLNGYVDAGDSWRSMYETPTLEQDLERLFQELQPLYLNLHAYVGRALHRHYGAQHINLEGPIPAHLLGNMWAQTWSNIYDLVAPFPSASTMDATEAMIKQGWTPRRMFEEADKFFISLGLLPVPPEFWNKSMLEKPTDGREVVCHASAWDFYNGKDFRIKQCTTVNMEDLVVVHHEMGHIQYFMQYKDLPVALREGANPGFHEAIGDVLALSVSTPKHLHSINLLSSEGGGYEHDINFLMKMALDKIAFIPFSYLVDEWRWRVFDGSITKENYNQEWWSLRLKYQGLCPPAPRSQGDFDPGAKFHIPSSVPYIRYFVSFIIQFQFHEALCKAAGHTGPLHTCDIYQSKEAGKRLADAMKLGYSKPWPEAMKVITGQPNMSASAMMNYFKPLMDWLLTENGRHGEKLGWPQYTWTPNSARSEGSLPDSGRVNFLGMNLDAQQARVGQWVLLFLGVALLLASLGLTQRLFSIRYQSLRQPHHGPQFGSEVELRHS
Type: biochemical
Text: As noted above, the compounds of the present invention have the ability to inhibit the activity of ACE, the enzyme which converts angiotensin I to angiotensin II and also inactivates bradykinin. The physiological activity of the compounds of the invention can be evaluated by determining the concentration of the test compound required to inhibit the activity of ACE by 50% in vitro (IC50), for example by the procedure of D. W. Cushman et al. [Biochemical Pharmacology, 20, 1637 (1971)]. Specifically, solutions of ACE extracted from rabbit lungs and, as substrate, hippurylhistidylleucine, to which had been added the test compound at various concentrations, were added to a borate buffer solution containing sodium chloride, and the pH was adjusted to a value of 8.3. The enzymatic reaction was allowed to proceed at 37° C. for 30 minutes, after which time the reaction was terminated by adding 1N aqueous hydrochloric acid. […] The residual hippuric acid was dissolved in water. The amount of hippuric acid in the resulting aqueous solution was determined by the absorbency to ultraviolet radiation at 228 nm. The resulting values were then plotted to form a curve indicating the relationship between the amount of hippuric acid formed and the concentration of the test compound. The IC50 value can be obtained by reading on this curve the concentration of the test compound which reduces the amount of hippuric acid formed to one half of that formed when no test compound is present.

Compound	IC50
O=C(O)CN1C[C@@H](c2ccccc2)CC[C@H](N[C@@H](CCCCC2CCNCC2)C(=O)O)C1=O (relative stereo) [G, rel-α-{3(S)-[1(S)-Carboxy-5-(4-piperidyl)pentylamino]-2-oxo-6(R)-phenylperhydroazepin-1-yl}acetic acid]	3.7 nM
NCCCC[C@H](N[C@H]1CS[C@H](c2cccs2)CN(CC(=O)O)C1=O)C(=O)O [A, α-{6(R)-[5-Amino-1(S)-carboxypentylamino]-5-oxo-2(S)-(2-thienyl)perhydro-1,4-thiazepin-4-yl}acetic acid dihydrochloride]	3.3 nM
NCCCCCCCC(NC1CCC(c2ccccc2)CN(CC(=O)O)C1=O)C(=O)O [E, rel-α-{3(S)-[8-Amino-1(S)-carboxyoctylamino]-2-oxo-6(R)-phenylperhydrozepin-1-yl}acetic acid]	4.1 nM

These reach a lower IC50. Values come first.

IC50	Compound
2 nM	NCCCCCC[C@H](N[C@H]1CS[C@H](c2cccs2)CN(CC(=O)O)C1=O)C(=O)O [B, α-{6(R)-[7-Amino-1(S)-carboxyheptylamino]-5-oxo-2(S)-(2-thienyl)perhydro-1,4-thiazepin-4-yl}acetic acid]
3.1 nM	NCCCCCCC(NC1CSC(c2ccccc2)CN(CC(=O)O)C1=O)C(=O)O [C, rel-α-}6(R)-[7-Amino-1(S)-carboxyheptylamino]-5-oxo-2(R)-phenylperhydro-1,4-thiazepin-4-yl}acetic acid]
1.6 nM	NCCCCCCC[C@H](N[C@H]1CS[C@H](c2cccs2)CN(CC(=O)O)C1=O)C(=O)O [D]
1.6 nM	O=C(O)CN1C[C@@H](c2cccs2)SC[C@H](N[C@@H](CCCCC2CCNCC2)C(=O)O)C1=O [F, α-{6(R)-[1(S)-Carboxy-5-(4-piperidyl)pentylamino]-5-oxo-2(S)-(2-thienyl)perhydro-1,4-thiazepin-4-yl}acetic acid]
